Source: patent US20090143279A1 (priority 2007, published 2009)
Read-outs that look alike come from different tables or passages of the source.

How the values were obtained:
[1] = system: mitochondrial membrane potential; type: cell-based, mouse; settings: for ΔΨm (composite Z-score): normalized score vs mock-treated (DMSO) wells
reactive oxygen species = type: cell-based, mouse; settings: for ROS (composite Z-score): normalized score vs mock-treated (DMSO) wells
OXPHOS gene expression = type: cell-based, mouse; settings: for GE-HTS (composite Z-score): normalized score vs mock-treated (DMSO) wells
nuOXPHOS transcripts = type: cell-based, mouse; settings: for nucOX (composite Z-score): normalized score vs mock-treated (DMSO) wells
mtOXPHOS transcripts = type: cell-based, mouse; settings: for mitoOX (composite Z-score): normalized score vs mock-treated (DMSO) wells
cytochrome c = type: cell-based, mouse; settings: for cyt c (composite Z-score): normalized score vs mock-treated (DMSO) wells
C2C12 myotubes = settings: for Viability (composite Z-score): normalized score vs mock-treated (DMSO) wells
[2] = system: cellular dehydrogenase activity; settings: for MTT (composite Z-score): normalized score vs mock-treated (DMSO) wells
[3] = composite Z-score vs DMSO, Conc 20 μM
[4] = normalized composite Z-score vs mock-treated (DMSO) wells, Conc 20 μM
[5] = composite Z-score vs DMSO wells, Conc 20 μM
[6] = 20 μM, composite Z-score vs DMSO
[7] = composite Z-score vs mock-treated (DMSO) wells, Conc 20 μM
[8] = Table 4, C2C12 myotubes, 48 h, composite Z-score
[9] = composite Z-score vs mock-treated (DMSO) wells, concentration of each compound in μM

## C=C(C)C1Cc2c(ccc(C(=O)O)c2O)O1 (stereo not shown) [tubaic acid]
[1]; Conc 20 μM
  ΔΨm (composite Z-score): −0.489
Reactive oxygen species; Conc 20 μM
  ROS (composite Z-score): 0.646
OXPHOS gene expression; Conc 20 μM
  GE-HTS (composite Z-score): −0.746
nuOXPHOS transcripts; Conc 20 μM
  nucOX (composite Z-score): −1.065
mtOXPHOS transcripts; Conc 20 μM
  mitoOX (composite Z-score): 0.070
Cytochrome c; Conc 20 μM
  cyt c (composite Z-score): 0.089
C2C12 myotubes; Conc 20 μM
  Viability (composite Z-score): −0.569
[2]; Conc 20 μM
  MTT (composite Z-score): 0.150

## CCN1CCN(C(=O)N[C@@H](C(=O)N[C@@H]2C(=O)N3[C@@H]2SC(C)(C)[C@@H]3C(=O)O)c2ccccc2)C(=O)C1=O [piperacillin]
[1]; [3]
  ΔΨm: −0.150
Reactive oxygen species; [3]
  ROS: 0.645
OXPHOS gene expression; [3]
  GE-HTS: −0.548
nuOXPHOS transcripts; [3]
  nucOX: −0.339
mtOXPHOS transcripts; [3]
  mitoOX: −0.857
Cytochrome c; [3]
  cyt c: 0.544
C2C12 myotubes; [3]
  Viability: −0.990
[2]; [3]
  MTT: −1.188

## Oc1cc(O)c2c(c1)O[C@H](c1ccc(O)c(O)c1)[C@H](O)C2 [epicatechin, reference compound]
[1]; [3]
  ΔΨm: −2.452
[1]; [4]
  ΔΨm: −1.802
Reactive oxygen species; [3]
  ROS: −0.465
Reactive oxygen species; [4]
  ROS: −0.199
OXPHOS gene expression; [3]
  GE-HTS: 0.431
OXPHOS gene expression; [4]
  GE-HTS: −0.754
nuOXPHOS transcripts; [3]
  nucOX: 0.310
nuOXPHOS transcripts; [4]
  nucOX: −0.773
mtOXPHOS transcripts; [3]
  mitoOX: 0.641
mtOXPHOS transcripts; [4]
  mitoOX: −0.631
Cytochrome c
  cyt c: 0.446
Cytochrome c; [3]
  cyt c: 0.110
Cytochrome c; [4]
  cyt c: 0.850
C2C12 myotubes; [3]
  Viability: −1.380
C2C12 myotubes; [4]
  Viability: 0.687
[2]; [3]
  MTT: −1.915
[2]; [4]
  MTT: −1.556

## CC(=O)N[C@@H](CC(C)C)C(=O)O [acetyl-L-leucine]
[1]; [5]
  ΔΨm: −0.575
Reactive oxygen species; [5]
  ROS: 1.139
OXPHOS gene expression; [5]
  GE-HTS: 0.328
nuOXPHOS transcripts; [5]
  nucOX: 0.438
mtOXPHOS transcripts; [5]
  mitoOX: 0.088
Cytochrome c; [5]
  cyt c: 0.267
C2C12 myotubes; [5]
  Viability: −0.465
[2]; [5]
  MTT: −0.804

## CC(=O)c1cc(CC=C(C)C)c(O)c(CC=C(C)C)c1 [3,5-diprenyl-4-hydroxyacetophenone]
[1]; [3]
  ΔΨm: −0.022
Reactive oxygen species; [3]
  ROS: 1.014
OXPHOS gene expression; [3]
  GE-HTS: 0.149
nuOXPHOS transcripts; [3]
  nucOX: −0.036
mtOXPHOS transcripts; [3]
  mitoOX: 0.538
Cytochrome c; [3]
  cyt c: −0.220
C2C12 myotubes; [3]
  Viability: −0.293
[2]; [3]
  MTT: −0.582

## Nc1nc2c(ncn2[C@H]2C[C@H](O)[C@@H](CO)O2)c(=O)[nH]1 [deoxyguanosine]
[1]; [3]
  ΔΨm: −0.268
Reactive oxygen species; [3]
  ROS: −0.110
OXPHOS gene expression; [3]
  GE-HTS: −0.001
nuOXPHOS transcripts; [3]
  nucOX: −0.090
mtOXPHOS transcripts; [3]
  mitoOX: 0.245
Cytochrome c; [3]
  cyt c: 0.695
C2C12 myotubes; [3]
  Viability: −0.819
[2]; [3]
  MTT: −0.703

## CC(=O)Oc1c(C)c(C)c2c(c1C)CCC(C)(CCCC(C)CCCC(C)CCCC(C)C)O2 (stereo not drawn) [alpha-tochopheryl acetate]
[1]; [6]
  ΔΨm: −0.734
Reactive oxygen species; [6]
  ROS: 0.364
OXPHOS gene expression; [6]
  GE-HTS: 0.212
nuOXPHOS transcripts; [6]
  nucOX: 0.339
mtOXPHOS transcripts; [6]
  mitoOX: −0.094
Cytochrome c; [6]
  cyt c: 0.261
C2C12 myotubes; [6]
  Viability: −0.957
[2]; [6]
  MTT: −1.398

## CC1=CC(=O)[C@H]2C(C)(C)CCC[C@]2(C)[C@@]1(O)CCc1ccoc1 [solidagenone]
[1]; [7]
  ΔΨm: −0.242
Reactive oxygen species; [7]
  ROS: 1.734
OXPHOS gene expression; [7]
  GE-HTS: 0.127
nuOXPHOS transcripts; [7]
  nucOX: −0.023
mtOXPHOS transcripts; [7]
  mitoOX: 0.441
Cytochrome c; [7]
  cyt c: −0.061
C2C12 myotubes; [7]
  Viability: −0.409
[2]; [7]
  MTT: 0.084

## CCOc1cc(CC(=O)c2ccc(O)c(O)c2O)ccc1O
[1]; Conc 20 μM
  ΔΨm (composite Z-score): −1.362
Reactive oxygen species; Conc 20 μM
  ROS (composite Z-score): 0.189
OXPHOS gene expression; Conc 20 μM
  GE-HTS (composite Z-score): 1.215
nuOXPHOS transcripts; Conc 20 μM
  nucOX (composite Z-score): 1.496
mtOXPHOS transcripts; Conc 20 μM
  mitoOX (composite Z-score): 0.371
Cytochrome c; Conc 20 μM
  cyt c (composite Z-score): 0.255
C2C12 myotubes; Conc 20 μM
  Viability (composite Z-score): −1.198
[2]; Conc 20 μM
  MTT (composite Z-score): −1.279

## COc1ccc([C@H]2Oc3c(I)c(OC)cc(OC)c3C[C@@H]2O)cc1OC [8-iodocatechin tetramethyl ether, reference compound]
[1]; Table 4, C2C12 myotubes, 48 h, JC-1, composite Z-score
  ΔΨm: 0.146
[1]; [7]
  ΔΨm: 0.146
Reactive oxygen species; [8]
  ROS: −0.448
Reactive oxygen species; [7]
  ROS: −0.448
OXPHOS gene expression; [7]
  GE-HTS: −1.194
nuOXPHOS transcripts; [7]
  nucOX: −0.985
mtOXPHOS transcripts; [7]
  mitoOX: −1.411
Cytochrome c; [7]
  cyt c: 0.237
C2C12 myotubes; [8]
  Viability: 0.377
C2C12 myotubes; [7]
  Viability: 0.377
[2]; [8]
  MTT: −1.359
[2]; [7]
  MTT: −1.359

## CCOC(=O)[C@H](CCc1ccccc1)N[C@@H](C)C(=O)N1Cc2ccccc2C[C@H]1C(=O)O [quinapril]
[1]; [6]
  ΔΨm: −0.276
Reactive oxygen species; [6]
  ROS: 1.175
OXPHOS gene expression; [6]
  GE-HTS: −0.132
nuOXPHOS transcripts; [6]
  nucOX: −0.127
mtOXPHOS transcripts; [6]
  mitoOX: −0.130
Cytochrome c; [6]
  cyt c: 0.237
C2C12 myotubes; [6]
  Viability: 0.034
[2]; [6]
  MTT: −1.111

## CC[C@H](C)[C@H](N)C(=O)N1CCC[C@H]1C(=O)N[C@H](C(=O)O)[C@@H](C)CC [diprotin A]
[1]; [9]
  ΔΨm: 0.357
Reactive oxygen species; [9]
  ROS: 0.300
OXPHOS gene expression; [9]
  GE-HTS: 0.099
nuOXPHOS transcripts; [9]
  nucOX: −0.102
mtOXPHOS transcripts; [9]
  mitoOX: 0.490
Cytochrome c; [9]
  cyt c: −0.975
C2C12 myotubes; [9]
  Viability: −0.788
[2]; [9]
  MTT: −1.068
